Activity calls are given as the source filed them. The calls are words filed in the database; no cut-off is given here.
Columns and labels:
MCF7 [1] = assay: Antiproliferative activity against human MCF7 cells assessed as inhibition of cell growth by CCK8 assay; assay type: functional, cell-based
[2] = Antiproliferative activity against tamoxifen-resistant human LCC2 cells assessed as inhibition of cell growth by CCK8 assay; assay type: functional, cell-based
MCF7 [3] = assay: Antiproliferative activity against human MCF7 cells harboring ER-alpha D538G mutant assessed as inhibition of cell growth by CCK8 assay; assay type: functional, cell-based
MCF7 [4] = assay: Antiproliferative activity against human MCF7 cells harboring ER-alpha Y537S mutant assessed as inhibition of cell growth by CCK8 assay; assay type: functional, cell-based
[5] = target: T1, Protein cereblon/Nuclear receptor coactivator 3 (Homo sapiens, UniProt Q9Y6Q9+Q96SW2); assay: PROTAC activity at CRBN/SRC-3 in human MCF7 cells assessed as induction of SRC-3 degradation at 1 uM incubated for 24 hrs by immunoblot analysis relative to control; assay type: cell-based
T1 sequence (Q96SW2 whole entry partner): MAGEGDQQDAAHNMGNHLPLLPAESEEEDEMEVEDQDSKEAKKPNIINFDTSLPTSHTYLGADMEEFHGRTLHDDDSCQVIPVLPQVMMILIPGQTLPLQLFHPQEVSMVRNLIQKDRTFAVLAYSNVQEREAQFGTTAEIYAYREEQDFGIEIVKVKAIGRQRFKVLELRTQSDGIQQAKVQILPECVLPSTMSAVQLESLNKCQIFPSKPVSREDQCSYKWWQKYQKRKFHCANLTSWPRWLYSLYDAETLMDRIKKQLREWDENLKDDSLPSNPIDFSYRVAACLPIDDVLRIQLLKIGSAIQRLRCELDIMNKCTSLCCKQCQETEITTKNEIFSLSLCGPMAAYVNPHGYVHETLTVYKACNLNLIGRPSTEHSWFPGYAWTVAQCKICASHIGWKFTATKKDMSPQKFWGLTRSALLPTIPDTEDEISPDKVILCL
T1 sequence (Q9Y6Q9 2-1424 limits assumed): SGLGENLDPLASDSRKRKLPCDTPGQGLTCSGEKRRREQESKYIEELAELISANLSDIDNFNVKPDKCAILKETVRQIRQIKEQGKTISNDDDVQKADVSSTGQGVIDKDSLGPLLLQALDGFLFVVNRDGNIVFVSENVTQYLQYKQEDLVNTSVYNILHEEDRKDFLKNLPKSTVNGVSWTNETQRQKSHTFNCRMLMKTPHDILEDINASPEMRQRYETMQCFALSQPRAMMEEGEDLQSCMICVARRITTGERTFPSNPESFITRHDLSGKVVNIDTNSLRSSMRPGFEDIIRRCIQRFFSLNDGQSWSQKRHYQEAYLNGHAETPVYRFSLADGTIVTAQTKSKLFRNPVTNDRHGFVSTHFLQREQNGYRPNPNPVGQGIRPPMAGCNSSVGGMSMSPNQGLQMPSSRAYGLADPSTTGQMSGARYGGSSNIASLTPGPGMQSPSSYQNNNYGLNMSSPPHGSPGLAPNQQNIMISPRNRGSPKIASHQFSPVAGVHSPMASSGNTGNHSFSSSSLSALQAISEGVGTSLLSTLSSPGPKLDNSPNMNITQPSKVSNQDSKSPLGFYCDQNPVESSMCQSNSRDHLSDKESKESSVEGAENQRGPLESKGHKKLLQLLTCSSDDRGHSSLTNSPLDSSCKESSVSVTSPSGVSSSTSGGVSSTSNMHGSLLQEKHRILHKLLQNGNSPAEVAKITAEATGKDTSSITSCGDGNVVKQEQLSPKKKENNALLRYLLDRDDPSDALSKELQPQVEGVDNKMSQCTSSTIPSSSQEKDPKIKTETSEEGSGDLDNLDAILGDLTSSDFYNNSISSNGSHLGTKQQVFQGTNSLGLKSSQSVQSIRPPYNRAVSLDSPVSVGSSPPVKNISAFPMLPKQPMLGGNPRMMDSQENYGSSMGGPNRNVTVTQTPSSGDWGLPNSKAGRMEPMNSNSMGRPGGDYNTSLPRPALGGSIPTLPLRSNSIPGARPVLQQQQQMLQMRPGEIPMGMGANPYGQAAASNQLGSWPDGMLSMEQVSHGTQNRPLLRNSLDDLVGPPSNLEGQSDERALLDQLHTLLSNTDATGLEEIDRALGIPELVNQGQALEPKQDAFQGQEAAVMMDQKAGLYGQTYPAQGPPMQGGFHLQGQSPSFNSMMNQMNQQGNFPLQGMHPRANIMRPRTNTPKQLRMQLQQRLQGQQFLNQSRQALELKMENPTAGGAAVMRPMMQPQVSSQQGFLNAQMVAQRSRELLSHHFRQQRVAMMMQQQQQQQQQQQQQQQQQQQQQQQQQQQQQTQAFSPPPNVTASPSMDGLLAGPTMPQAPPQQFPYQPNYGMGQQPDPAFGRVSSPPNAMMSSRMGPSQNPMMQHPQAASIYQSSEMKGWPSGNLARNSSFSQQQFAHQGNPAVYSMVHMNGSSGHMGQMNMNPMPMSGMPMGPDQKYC

[6] = target: T1, Protein cereblon/Nuclear receptor coactivator 3; assay: PROTAC activity at CRBN/SRC-3 in human MCF7 cells assessed as induction of ER-alpha degradation at 1 uM incubated for 24 hrs by immunoblot analysis relative to control; assay type: cell-based
[7] = target: T2, von Hippel-Lindau disease tumor suppressor/Nuclear receptor coactivator 3 (Homo sapiens) (UniProt Q9Y6Q9+P40337); assay: PROTAC activity at VHL/SRC-3 in human MCF7 cells assessed as induction of SRC-3 degradation at 1 uM incubated for 24 hrs by immunoblot analysis relative to control; assay type: cell-based
T2 sequence (P40337 whole entry, looked up): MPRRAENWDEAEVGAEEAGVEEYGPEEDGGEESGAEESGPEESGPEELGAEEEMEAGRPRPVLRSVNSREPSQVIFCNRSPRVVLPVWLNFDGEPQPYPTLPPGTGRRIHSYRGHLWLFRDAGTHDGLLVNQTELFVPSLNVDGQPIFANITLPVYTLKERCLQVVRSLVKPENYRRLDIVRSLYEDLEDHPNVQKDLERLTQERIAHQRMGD
T2 sequence (Q9Y6Q9 whole entry, looked up): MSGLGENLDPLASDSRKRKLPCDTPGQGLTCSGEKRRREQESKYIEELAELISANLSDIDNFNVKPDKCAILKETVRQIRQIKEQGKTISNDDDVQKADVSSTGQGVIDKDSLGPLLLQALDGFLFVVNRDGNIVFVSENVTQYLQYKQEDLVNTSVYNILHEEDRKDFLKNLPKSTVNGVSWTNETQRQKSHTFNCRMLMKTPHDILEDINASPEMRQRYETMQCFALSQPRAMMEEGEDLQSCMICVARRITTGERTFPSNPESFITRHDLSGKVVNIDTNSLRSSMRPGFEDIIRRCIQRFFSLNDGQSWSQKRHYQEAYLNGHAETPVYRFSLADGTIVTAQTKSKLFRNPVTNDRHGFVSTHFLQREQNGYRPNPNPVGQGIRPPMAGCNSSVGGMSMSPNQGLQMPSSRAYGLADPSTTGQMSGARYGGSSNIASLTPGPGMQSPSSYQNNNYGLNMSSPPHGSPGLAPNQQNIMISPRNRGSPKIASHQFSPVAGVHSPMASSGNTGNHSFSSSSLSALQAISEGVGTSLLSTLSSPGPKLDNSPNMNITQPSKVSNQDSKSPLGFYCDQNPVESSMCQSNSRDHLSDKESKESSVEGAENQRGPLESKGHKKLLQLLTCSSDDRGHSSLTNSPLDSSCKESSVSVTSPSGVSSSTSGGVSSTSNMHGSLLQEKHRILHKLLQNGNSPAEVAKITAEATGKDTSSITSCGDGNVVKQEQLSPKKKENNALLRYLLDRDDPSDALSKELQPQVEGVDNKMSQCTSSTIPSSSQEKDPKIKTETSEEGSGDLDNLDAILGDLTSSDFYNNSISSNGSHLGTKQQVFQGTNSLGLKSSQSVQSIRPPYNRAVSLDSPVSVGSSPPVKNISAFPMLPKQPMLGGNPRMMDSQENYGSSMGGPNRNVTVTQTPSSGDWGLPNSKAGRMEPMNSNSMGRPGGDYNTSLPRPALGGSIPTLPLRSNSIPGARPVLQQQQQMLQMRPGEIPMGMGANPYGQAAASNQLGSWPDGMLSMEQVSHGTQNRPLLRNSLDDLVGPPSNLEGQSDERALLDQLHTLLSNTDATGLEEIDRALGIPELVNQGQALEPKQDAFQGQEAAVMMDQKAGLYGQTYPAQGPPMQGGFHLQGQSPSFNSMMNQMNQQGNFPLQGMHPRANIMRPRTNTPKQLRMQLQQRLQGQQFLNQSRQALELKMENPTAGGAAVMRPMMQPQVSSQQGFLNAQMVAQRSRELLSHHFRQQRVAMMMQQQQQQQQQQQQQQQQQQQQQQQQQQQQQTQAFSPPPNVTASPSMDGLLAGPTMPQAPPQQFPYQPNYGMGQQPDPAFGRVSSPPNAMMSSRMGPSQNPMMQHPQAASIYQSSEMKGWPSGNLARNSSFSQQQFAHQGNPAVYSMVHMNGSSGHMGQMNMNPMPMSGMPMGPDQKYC

[8] = target: T2, von Hippel-Lindau disease tumor suppressor/Nuclear receptor coactivator 3 (Homo sapiens); assay: PROTAC activity at VHL/SRC-3 in human MCF7 cells assessed as induction of […] degradation at 1 uM incubated for 24 hrs by immunoblot analysis relative to control; assay type: cell-based
MCF-10A = assay: Cytotoxicity against human MCF-10A cells assessed as cell growth by CCK-8 assay; assay type: toxicity, cell-based
[9] = Half life of the compound in human plasma by LC-MS/MS analysis; assay type: ADME, cell-free
[10] = Metabolic stability of the compound in human plasma measured after 2 hrs by LC-MS/MS analysis; assay type: ADME, cell-free; details: read-out: Stability
MCF7 [11] = assay: Induction of SRC-3 degradation in human MCF7 cells at 1 uM incubated for 24 hrs by immunoblot analysis relative to control; assay type: cell-based
MCF7 [12] = assay: Induction of ER-alpha degradation in human MCF7 cells at 1 uM incubated for 24 hrs by immunoblot analysis relative to control; assay type: cell-based
[13] = Induction of apoptosis in tamoxifen-resistant human LCC2 cells assessed as viable cells incubated for 48 hrs by AnnexinV-FITC/PI staining based flow cytometry (reference value: 88.09%); assay type: functional, Tamoxifen-resistant LCC2 cell
[14] = Induction of apoptosis in tamoxifen-resistant human LCC2 cells assessed as early apoptotic cells incubated for 48 hrs by AnnexinV-FITC/PI staining based flow cytometry (reference value: 5.92%); assay type: functional, Tamoxifen-resistant LCC2 cell
[15] = Induction of apoptosis in tamoxifen-resistant human LCC2 cells assessed as late apoptotic cells incubated for 48 hrs by AnnexinV-FITC/PI staining based flow cytometry (reference value: 4.83%); assay type: functional, Tamoxifen-resistant LCC2 cell
[16] = Induction of apoptosis in tamoxifen-resistant human LCC2 cells assessed as necrotic cells incubated for 48 hrs by AnnexinV-FITC/PI staining based flow cytometry (reference value: 1.16%); assay type: functional, Tamoxifen-resistant LCC2 cell
Mus musculus = assay: In vivo PROTAC activity at CRBN/SRC-3 in Balb/c mouse xenografted with tamoxifen-resistant human LCC2 cells assessed as induction of SRC-3 degradation in tumor tissues at 5 uM/Kg, ip administered once every 2 days for 23 days and measured on day 25 by western blot analysis; assay type: functional, organism-based; details: time 25.0 day
LNCaP = assay: Antiproliferative activity against human LNCaP cells assessed as inhibition of cell growth by CCK-8 assay; assay type: functional, cell-based
[17] = target: T1, Protein cereblon/Nuclear receptor coactivator 3; assay: PROTAC activity at CRBN/SRC-3 in human MCF7 cells assessed as maximal induction of SRC-3 degradation at 1 uM incubated for 36 hrs by immunoblot analysis; assay type: cell-based
[18] = target: T1, Protein cereblon/Nuclear receptor coactivator 3; assay: PROTAC activity at CRBN/SRC-3 in tamoxifen-resistant human LCC2 cells assessed as maximal induction of SRC-3 degradation at 1 uM incubated for 36 hrs by immunoblot analysis; assay type: cell-based; details: Tamoxifen-resistant LCC2 cell
[19] = tested on: Tamoxifen-resistant LCC2 cell; assay: Antitumor activity against tamoxifen-resistant human LCC2 cells xenografted in Balb/c mouse assessed as inhibition of tumor growth at 3 uM/Kg, ip administered once every 2 days for 23 days; assay type: functional, organism-based; details: time 23.0 day

| Compound | IC50 (MCF7 [1]) [µM] | IC50 [2] [µM] | IC50 (MCF7 [3]) [µM] | IC50 (MCF7 [4]) [µM] | Activity [5] | Activity [6] | also measured |
| --- | --- | --- | --- | --- | --- | --- | --- |
| CC/C(=C(\c1ccc(O)cc1)c1ccc(OCCN(C)C)cc1)c1ccccc1 [AFIMOXIFENE] | 0.38 | 26.5 | 8.57 | 18.8 |  |  |  |
| C/C(=N\Nc1nc2ccccc2n1CC1CN(c2cccc3c2C(=O)N(C2CCC(=O)NC2=O)C3=O)C1)c1ccccn1 (stereo not drawn) | 2.97 | 6.28 | 0.56 | 0.13 | 15% | 26% |  |
| C/C(=N\Nc1nc2ccccc2n1CCNC(=O)CCCCCCCCCCN[C@H](C(=O)N1C[C@H](O)C[C@H]1C(=O)N[C@@H](C)c1ccc(-c2scnc2C)cc1)C(C)(C)C)c1ccccn1 | 0.08 | 1.06 | 0.41 | 0.16 |  |  | Activity [7]: 62%; Activity [8]: 62%; Activity (MCF-10A): Non-toxic |
| C/C(=N\Nc1nc2ccccc2n1C1CN(c2cccc3c2C(=O)N(C2CCC(=O)NC2=O)C3=O)C1)c1ccccn1 (stereo not drawn) | 9.39 | 3.36 | 0.52 | 0.1 | 17% | 16% |  |
| C/C(=N\Nc1nc2ccccc2n1CCNC(=O)CCCCCCCCCN[C@H](C(=O)N1C[C@H](O)C[C@H]1C(=O)N[C@@H](C)c1ccc(-c2scnc2C)cc1)C(C)(C)C)c1ccccn1 | 0.09 | 1.11 | 0.35 | 0.13 |  |  | Activity [7]: 63%; Activity [8]: 61%; Activity (MCF-10A): Non-toxic |
| C/C(=N\Nc1nc2ccccc2n1CCNC(=O)CCCCCCN[C@H](C(=O)N1C[C@H](O)C[C@H]1C(=O)N[C@@H](C)c1ccc(-c2scnc2C)cc1)C(C)(C)C)c1ccccn1 | 0.47 | 3.7 | 1.04 | 0.83 |  |  | Activity [7]: 62%; Activity [8]: 43%; Activity (MCF-10A): Non-toxic |
| C/C(=N\Nc1nc2ccccc2n1CCNC(=O)CN1CCC2(CC1)CCN(c1ccc3c(c1)C(=O)N(C1CCC(=O)NC1=O)C3=O)CC2)c1ccccn1 (stereo not drawn) | 5.59 | 7.99 | 6.99 | 7.2 | inactive | inactive |  |
| C/C(=N\Nc1nc2ccccc2n1CC1CCN(C(=O)CCCCCCCNc2cccc3c2CN(C2CCC(=O)NC2=O)C3=O)CC1)c1ccccn1 (stereo not drawn) | 0.84 | 5.03 | 1.26 | 0.93 | 32% | 39% |  |
| C/C(=N\Nc1nc2ccccc2n1C)c1ccccn1 | 0.47 | 0.6 | 0.77 | 0.004 |  |  | half-life [9]: 2.17 h; remaining at 2 h [10]: > 50%; Activity (MCF7 [11]): 53%; Activity (MCF7 [12]): 86% |
| CCN(CC)CCOC(=O)c1ccc(N)cc1 [PROCAINE] |  |  |  |  |  |  | half-life [9]: 0.0303 h |
| C/C(=N\Nc1nc2ccccc2n1CCNC(=O)C1CC2(CCN(c3ccc4c(c3)C(=O)N(C3CCC(=O)NC3=O)C4=O)CC2)C1)c1ccccn1 (stereo not drawn) | 2.94 | 8.63 | 1.11 | 1.06 | 5% | inactive |  |
| C[C@]12CC[C@@H]3c4ccc(O)cc4C[C@@H](CCCCCCCCC[S+]([O-])CCCC(F)(F)C(F)(F)F)[C@H]3[C@@H]1CC[C@@H]2O (stereo partly drawn) [FULVESTRANT] | 0.22 | 0.47 | 0.58 | 6.15 |  |  | Activity [13]: 69.81%; Activity [14]: 15.07%; Activity [15]: 12.06%; Activity [16]: 3.06%; Activity (Mus musculus): inactive; Activity (MCF7 [11]): inactive; Activity (MCF7 [12]): 86% |
| C/C(=N\Nc1nc2ccccc2n1CCNC(=O)CCCCCCCCN[C@H](C(=O)N1C[C@H](O)C[C@H]1C(=O)N[C@@H](C)c1ccc(-c2scnc2C)cc1)C(C)(C)C)c1ccccn1 | 0.06 | 0.75 | 0.36 | 0.15 |  |  | Activity [7]: 68%; Activity [8]: 65%; Activity (MCF-10A): Non-toxic; IC50 (LNCaP): 1.43 µM |
| C/C(=N\Nc1nc2ccccc2n1C1CN(C2CCN(c3cccc4c3C(=O)N(C3CCC(=O)N(C)C3=O)C4=O)CC2)C1)c1ccccn1 (stereo not drawn) |  |  |  |  |  |  | Activity [17]: inactive; Activity [18]: inactive |
| C/C(=N\Nc1nc2ccccc2n1C1CN(c2ccc3c(c2)C(=O)N(C2CCC(=O)NC2=O)C3=O)C1)c1ccccn1 (stereo not drawn) | 0.32 | 4.94 | 0.96 | 0.68 | 10% | inactive |  |
| C/C(=N\Nc1nc2ccccc2n1CCNC(=O)CCCCCN[C@H](C(=O)N1C[C@H](O)C[C@H]1C(=O)N[C@@H](C)c1ccc(-c2scnc2C)cc1)C(C)(C)C)c1ccccn1 | 1.59 | 7.14 | 2.53 | 2.75 |  |  | Activity [7]: 8%; Activity [8]: 15%; Activity (MCF-10A): Non-toxic |
| CC/C(=C(\c1ccccc1)c1ccc(OCCN(C)C)cc1)c1ccccc1 |  |  |  |  |  |  | Activity [19]: inactive |
| C/C(=N\Nc1nc2ccccc2n1CC1CN(c2ccc3c(c2)C(=O)N(C2CCC(=O)NC2=O)C3=O)C1)c1ccccn1 (stereo not drawn) | 0.37 | 3.11 | 0.29 | 0.32 | inactive | 15% |  |
| C/C(=N\Nc1nc2ccccc2n1C1CN(C(=O)C2CN(c3cccc4c3C(=O)N(C3CCC(=O)NC3=O)C4=O)C2)C1)c1ccccn1 (stereo not drawn) | 8.24 | 14.8 | 11.8 | 19.1 | inactive | 5% |  |
| C/C(=N\Nc1nc2ccccc2n1C1CN(C(=O)C2CCN(c3cccc4c3C(=O)N(C3CCC(=O)NC3=O)C4=O)CC2)C1)c1ccccn1 (stereo not drawn) | 4.88 | 5.85 | 1.73 | 0.75 | 29% | 15% |  |
| C/C(=N\Nc1nc2ccccc2n1CC1CCN(c2ccc3c(c2)C(=O)N(C2CCC(=O)NC2=O)C3=O)CC1)c1ccccn1 (stereo not drawn) | 1.13 | 5.1 | 1.52 | 0.36 | 28% | 34% |  |
| C/C(=N\Nc1nc2ccccc2n1CCNC(=O)CN1CCC(CN2CCN(c3ccc4c(c3)C(=O)N(C3CCC(=O)NC3=O)C4=O)CC2)CC1)c1ccccn1 (stereo not drawn) | 1.23 | 8.74 | 0.85 | 0.5 | 23% | 30% |  |
| C/C(=N\Nc1nc2ccccc2n1CCNC(=O)CCCCCCCN[C@H](C(=O)N1C[C@H](O)C[C@H]1C(=O)N[C@@H](C)c1ccc(-c2scnc2C)cc1)C(C)(C)C)c1ccccn1 | 0.52 | 1.94 | 0.45 | 0.36 |  |  | Activity [7]: 56%; Activity [8]: 38%; Activity (MCF-10A): Non-toxic |
| C/C(=N\Nc1nc2ccccc2n1CC1CCN(CC(=O)N[C@H](C(=O)N2C[C@H](O)C[C@H]2C(=O)N[C@@H](C)c2ccc(-c3scnc3C)cc2)C(C)(C)C)CC1)c1ccccn1 | 0.69 | 2.76 | 0.69 | 0.94 |  |  | Activity [7]: 21%; Activity [8]: 10%; Activity (MCF-10A): Non-toxic |
